US20060057230A1, “Tea polyphenols bioavailability enhancement method” (priority 2004, published 2006)
“And” between values parts separate entries of the source, which are not always exact repeats. Identical values can stand only once. Like-named read-outs stand apart in the source and are kept apart here.

Experiments:
[1] = Plasma free catechin pharmacokinetics after oral Polyphenon E, fasting/fed cross-over; assay type: in vivo, human; details: for EGCG AUC / EGCG Cmax: oral Polyphenon E 1200 mg dose level
Procedure: Study Design. […] Breakfast consisted of one or two 4-oz muffins.
Sample Collection and Processing. […] The total volume of each urine sample was measured.
Tea Polyphenol Concentration Measurements.
This assay employed a gradient of two mobile phases. […] The flow rate was maintained at 1 ml/min.
The distribution of pharmacokinetic parameter data was normalized by logarithmic transformation prior to statistical analyses. The primary analyses were to determine whether the pharmacokinetics of tea catechins are different under fasting/fed states. Pharmacokinetic parameters such as AUC, Cmax, Tmax, half-life, CL/F, Vd/F, and total amount excreted over 24 hr between the fasting and fed conditions were compared by standard cross-over statistical analyses. The pkcross routine in Stata 8.0 (StataCorp 2003) was used. […] A p<0.05 was considered statistically significant. In secondary analysis, EGCG pharmacokinetic parameters such as CL/F, Vd/F, dose normalized AUC, and dose normalized Cmax were compared among different dose levels using one-way analysis of variance followed by post-hoc t-tests corrected for multiple comparisons. For the post-hoc t-test, a p<0.0167 was considered statistically significant.

[2] = Total catechin recovered in urine over 24 hours after oral Polyphenon E; assay type: in vivo, human; details: following Polyphenon E administration
Procedure: Blood samples were collected prior to and at 0.5, 1, 2, 4, 6, 8, 10, and 24 hours after Polyphenon E administration. Urine samples were collected prior to and up to 24 hours (divided into two intervals: 0-8 and 8-24 hours post-dose) after dosing.
Sample Collection and Processing. Blood samples were collected into Vacutainer tubes containing sodium heparin. Within 30 minutes of collection, tubes were centrifuged for 10 minutes at 2000 rpm. After centrifugation, plasma was mixed with Vc-EDTA solution (0.4 M NaH2PO4 buffer containing 20% ascorbic acid and 0.1% EDTA, pH 3.6) in the volume ratio of 1:0.02 and stored at −80° C. until sample analysis. Urine specimen container was preadded with 1.38 g NaH2PO4, 1 g ascorbic acid, and 5 mg EDTA to prevent degradation of tea catechins. Urine specimen was kept cold by storing the specimen container in a cooler chest with freezer packs during each collection period. The total volume of each urine sample was measured. […]
The HPLC system consisted of an ESA Model 465 refrigerated autosampler, an ESA Model 580 two-pump solvent delivery system, an ESA 5500 coulochem electrode array system (CEAS), and a Supelcosil C18 reversed-phase column (150×4.6 mm; particle size, 5 μm; Supelco Inc., Bellefonte, Pa.). […] The eluent was monitored by the CEAS with potential settings at −10, 150, 300, and 500 mV. […]

[3] = Plasma total (free and conjugated) catechin Cmax after β-glucuronidase and sulfatase treatment; details: for form mostly present in plasma: comparing total and free catechin Cmax
Procedure: (§1) During the initial clinic visit, study participants completed a medical history form and underwent a brief physical examination. A fasting blood was collected and subjected to a complete blood count with differential leukocyte count and a comprehensive blood chemistry analysis. Eligible subjects were randomly assigned to one of the Polyphenon E doses (400, 800, and 1200 mg, based on EGCG content) and were required to refrain from the ingestion of tea, apples, chocolate, and their products two weeks prior to the first pharmacokinetic study day and until the end of the second pharmacokinetic study day. The night prior to the first pharmacokinetic study day, subjects fasted after midnight except for water. At approximately either 6 am or 9 am on the morning of the first pharmacokinetic study day, each subject was randomly assigned to receive Polyphenon E at the assigned dose level with or without breakfast. Breakfast consisted of one or two 4-oz muffins.
(§2) Study participants had the option of selecting from three varieties of Otis Spunkmeyer® brand muffins: cheese streusel, wild blueberry, and banana nut flavors. The muffins contain 420 to 480 calories each, with 48-60 grams of carbohydrates, 20-24 grams of fat, and 6 grams of protein. Blood samples were collected prior to and at 0.5, 1, 2, 4, 6, 8, 10, and 24 hours after Polyphenon E administration. Urine samples were collected prior to and up to 24 hours (divided into two intervals: 0-8 and 8-24 hours post-dose) after dosing. Following a one-week wash-out period, study subjects fasted overnight and were crossed-over to receive the same dose of Polyphenon E under the other fasting/fed condition.
(§3) Blood samples were collected into Vacutainer tubes containing sodium heparin. Within 30 minutes of collection, tubes were centrifuged for 10 minutes at 2000 rpm. After centrifugation, plasma was mixed with Vc-EDTA solution (0.4 M NaH2PO4 buffer containing 20% ascorbic acid and 0.1% EDTA, pH 3.6) in the volume ratio of 1:0.02 and stored at −80° C. until sample analysis. Urine specimen container was preadded with 1.38 g NaH2PO4, 1 g ascorbic acid, and 5 mg EDTA to prevent degradation of tea catechins. Urine specimen was kept cold by storing the specimen container in a cooler chest with freezer packs during each collection period. The total volume of each urine sample was measured. An aliquot of urine sample was mixed with the Vc-EDTA solution and stored at −80° C. until sample analysis.
(§4) In brief, for determination of free green tea catechins, plasma or urine samples were extracted with ethyl acetate. The ethyl acetate layer was mixed with a small aliquot of 0.1% ascorbic acid before drying by vacuum centrifugation. The dried residue was re-dissolved in 15% acetonitrile and injected onto HPLC. For determination of the total of free and glucuronic acid/sulfate conjugates of tea catechins, plasma or urine samples were mixed with an aliquot of β-glucuronidase and sulfatase in the presence of ascorbate-EDTA solution. Following pre-treatment, the samples were extracted as described above for the free catechins.
(§5) The HPLC system consisted of an ESA Model 465 refrigerated autosampler, an ESA Model 580 two-pump solvent delivery system, an ESA 5500 coulochem electrode array system (CEAS), and a Supelcosil C18 reversed-phase column (150×4.6 mm; particle size, 5 μm; Supelco Inc., Bellefonte, Pa.). The autosampler and column temperatures were maintained at 6° C. and 35° C., respectively. This assay employed a gradient of two mobile phases. Buffer A consisted of 30 mM NaH2PO4 buffer, acetonitrile, and tetrahydrofuran in the volume ratio of 98.13:1.75:0.12 (pH 3.35). Buffer B consisted of 15 mM NaH2PO4 buffer, acetonitrile, and tetrahydrofuran in the volume ratio of 41.5:58.5:12.5 (pH 3.45). The flow rate was maintained at 1 ml/min. The column was eluted with 96% buffer A and 4% buffer B from 0 to 7 min.

[4] = in vivo
Procedure: as §1, §2, §3, §4, §5

[5] = rats; cited from earlier work
[6] = mice; cited from earlier work
[7] = oral Polyphenon E (400 mg EGCG), Fasting
[8] = oral Polyphenon E (400 mg EGCG), Fed
[9] = oral Polyphenon E (800 mg EGCG), Fasting
[10] = oral Polyphenon E (800 mg EGCG), Fed
[11] = oral Polyphenon E (1200 mg EGCG), Fasting
[12] = oral Polyphenon E (1200 mg EGCG), Fed
[13] = oral Polyphenon E 200 mg (so in the source), Fasting
[14] = oral Polyphenon E 200 mg (so in the source), Fed
[15] = oral Polyphenon E 400 mg, Fasting
[16] = oral Polyphenon E 800 mg, Fasting

O=C(O[C@@H]1Cc2c(O)cc(O)cc2O[C@@H]1c1ccc(O)c(O)c1)c1cc(O)c(O)c(O)c1 [ECG, epicatechin gallate]
Maximum plasma free catechin concentrations [1, 7]: 87.6 ± 62 ng/mL | Maximum plasma free catechin concentrations [1, 8]: 15.7 ± 8.8 ng/mL | Maximum plasma free catechin concentrations [1, 9]: 174 ± 141 ng/mL | Maximum plasma free catechin concentrations [1, 10]: 33.9 ± 11.0 ng/mL | Maximum plasma free catechin concentrations [1, 11]: 383 ± 176 ng/mL | Maximum plasma free catechin concentrations [1, 12]: 112.9 ± 88.2 ng/mL | urinary total catechin levels [2]: very low or undetectable | form mostly present in plasma [3]: free form

Oc1cc(O)c2c(c1)O[C@H](c1cc(O)c(O)c(O)c1)[C@H](O)C2 [EGC, epigallocatechin]
form mostly present in plasma [4]: conjugated forms

Oc1cc(O)c2c(c1)O[C@H](c1ccc(O)c(O)c1)[C@H](O)C2 [EC, epicatechin]
free catechin levels in plasma samples ([1]; after oral Polyphenon E): very low or undetectable | Maximum plasma free catechin concentrations [1, 7]: 5.6 ± 7.8 ng/mL | Maximum plasma free catechin concentrations [1, 8]: 1.6 ± 3.9 ng/mL | Maximum plasma free catechin concentrations [1, 9]: 1.92 ± 3.4 ng/mL | Maximum plasma free catechin concentrations [1, 10]: 2.8 ± 5.0 ng/mL | Maximum plasma free catechin concentrations [1, 11]: 16.6 ± 30.0 ng/mL | Maximum plasma free catechin concentrations [1, 12]: 10.1 ± 15.3 ng/mL | form mostly present in plasma [3]: conjugated forms

O=C(O[C@@H]1Cc2c(O)cc(O)cc2O[C@@H]1c1cc(O)c(O)c(O)c1)c1cc(O)c(O)c(O)c1 [EGCG, epigallocatechin gallate]
AUC of free EGCG [1, 13]: 685.53 ± 394.33^2 min · μg/ml | CL/F of free EGCG [1, 13]: 2.37 ± 1.32^2 L/min | Cmax of free EGCG [1, 13]: 3371.6 ± 1651.2^2 ng/ml | Tmax of free EGCG [1, 13]: 90.60 ± 28.37^3 min | t1/2 of free EGCG [1, 13]: 228.4 ± 75.3 min | AUC of free EGCG [1, 14]: 299.40 ± 285.86^2 min · μg/ml | CL/F of free EGCG [1, 14]: 7.39 ± 4.86 L/min | Cmax of free EGCG [1, 14]: 923.6 ± 755.3 ng/mL | Tmax of free EGCG [1, 14]: 175.10 ± 74.58 min | t1/2 of free EGCG [1, 14]: 254.9 ± 59.9^4 min | AUC of free EGCG [1, 15]: 126.96±47.02 min · μg/ml and 126.96 ± 47.02^2 min · μg/ml | CL/F of free EGCG [1, 15]: 3.64 ± 1.55^2 L/min | Cmax of free EGCG [1, 15]: 798.7±573.1 ng/ml and 798.7 ± 573.1^2 ng/ml | Tmax of free EGCG [1, 15]: 93.90 ± 58.99^3 min | t1/2 of free EGCG [1, 15]: 170.5 ± 104.6 min | AUC of free EGCG ([1]; oral Polyphenon E 400 mg, Fed): 36.70±24.66 min · μg/ml and 36.70 ± 24.66^1 min · μg/ml | CL/F of free EGCG ([1]; oral Polyphenon E 400 mg, Fed): 14.53 ± 7.84 L/min | Cmax of free EGCG ([1]; oral Polyphenon E 400 mg, Fed): 141.8 ± 89.1 ng/mL | Tmax of free EGCG ([1]; oral Polyphenon E 400 mg, Fed): 122.90 ± 83.70 min | t1/2 of free EGCG ([1]; oral Polyphenon E 400 mg, Fed): 145.2 ± 129.1 min | AUC of free EGCG [1, 16]: 254.48±214.21 min · μg/ml and 254.48 ± 214.21^2 min · μg/ml | CL/F of free EGCG [1, 16]: 4.80 ± 2.69^2 L/min | Cmax of free EGCG [1, 16]: 1522.4±1357.8 ng/ml and 1522.4 ± 1357.8^2 ng/ml | Tmax of free EGCG [1, 16]: 83.30 ± 31.04^3 min | t1/2 of free EGCG [1, 16]: 156.5 ± 77.5 min | AUC of free EGCG ([1]; oral Polyphenon E 800 mg, Fed): 90.89 ± 37.39 µg·min/mL | CL/F of free EGCG ([1]; oral Polyphenon E 800 mg, Fed): 11.63 ± 9.25 L/min | Cmax of free EGCG ([1]; oral Polyphenon E 800 mg, Fed): 294.0 ± 113.5 ng/mL | Tmax of free EGCG ([1]; oral Polyphenon E 800 mg, Fed): 154.90 ± 78.31 min | t1/2 of free EGCG ([1]; oral Polyphenon E 800 mg, Fed): 220.9 ± 209.3 min | EGCG AUC ([1]; with food): 299.40 ± 285.86 µg·min/mL | EGCG Cmax ([1]; with food): 923.6 ± 755.3 ng/mL | EGCG AUC ([1]; without food): 685.53 ± 394.33 µg·min/mL | EGCG Cmax ([1]; without food): 3371.6 ± 1651.2 ng/mL | Maximum plasma free catechin concentrations [1, 7]: 799 ± 573 ng/mL | Maximum plasma free catechin concentrations [1, 8]: 141.8 ± 89.1 ng/mL | Maximum plasma free catechin concentrations [1, 9]: 1522.4 ± 1357.8^3 ng/ml | Maximum plasma free catechin concentrations [1, 10]: 294.0 ± 113.5 ng/mL | Maximum plasma free catechin concentrations [1, 11]: 3371.6 ± 1651.2^3 ng/ml | Maximum plasma free catechin concentrations [1, 12]: 923.6 ± 755.3 ng/mL | urinary total catechin levels [2]: very low or undetectable | oral dose available in the systemic blood [5]: less than 2% | oral bioavailability [6]: < 13% | form mostly present in plasma [3]: free form | Maximum plasma total catechin concentrations [3, 7]: 754.9 ± 399.9^3 ng/ml | Maximum plasma total catechin concentrations [3, 8]: 174.4 ± 80.6 ng/mL | Maximum plasma total catechin concentrations [3, 9]: 1622.7 ± 1501.4^3 ng/ml | Maximum plasma total catechin concentrations [3, 10]: 360.1 ± 136.9 ng/mL | Maximum plasma total catechin concentrations [3, 11]: 3988.4 ± 2068.2^3 ng/ml | Maximum plasma total catechin concentrations [3, 12]: 871.9 ± 625.3 ng/mL
